Laboratory results reported in ChEMBL document CHEMBL5096143, “Current status in the discovery of dual BET/HDAC inhibitors” (Bioorg Med Chem Lett, 2021).
Values belong to the molecule of their own block, whether it stands above or below them.

Assays:
Histone deacetylase 1 = Histone deacetylase 1 (Homo sapiens, UniProt Q13547); assay: Inhibition of HDAC1 (unknown origin)
[1] = target: T1, Bromodomain-containing protein 4 (Homo sapiens, UniProt O60885); assay: Inhibition of BRD4-BD1 (unknown origin)
[2] = target: T1, Bromodomain-containing protein 4; assay: Inhibition of GST-tagged BRD4 (unknown origin) by HTRF assay
[3] = target: T2, Bromodomain-containing protein 2 (Homo sapiens, UniProt P25440); assay: Inhibition of recombinant BRD2-BD1 (unknown origin) by TR-FRET assay
T2 sequence (P25440 whole entry): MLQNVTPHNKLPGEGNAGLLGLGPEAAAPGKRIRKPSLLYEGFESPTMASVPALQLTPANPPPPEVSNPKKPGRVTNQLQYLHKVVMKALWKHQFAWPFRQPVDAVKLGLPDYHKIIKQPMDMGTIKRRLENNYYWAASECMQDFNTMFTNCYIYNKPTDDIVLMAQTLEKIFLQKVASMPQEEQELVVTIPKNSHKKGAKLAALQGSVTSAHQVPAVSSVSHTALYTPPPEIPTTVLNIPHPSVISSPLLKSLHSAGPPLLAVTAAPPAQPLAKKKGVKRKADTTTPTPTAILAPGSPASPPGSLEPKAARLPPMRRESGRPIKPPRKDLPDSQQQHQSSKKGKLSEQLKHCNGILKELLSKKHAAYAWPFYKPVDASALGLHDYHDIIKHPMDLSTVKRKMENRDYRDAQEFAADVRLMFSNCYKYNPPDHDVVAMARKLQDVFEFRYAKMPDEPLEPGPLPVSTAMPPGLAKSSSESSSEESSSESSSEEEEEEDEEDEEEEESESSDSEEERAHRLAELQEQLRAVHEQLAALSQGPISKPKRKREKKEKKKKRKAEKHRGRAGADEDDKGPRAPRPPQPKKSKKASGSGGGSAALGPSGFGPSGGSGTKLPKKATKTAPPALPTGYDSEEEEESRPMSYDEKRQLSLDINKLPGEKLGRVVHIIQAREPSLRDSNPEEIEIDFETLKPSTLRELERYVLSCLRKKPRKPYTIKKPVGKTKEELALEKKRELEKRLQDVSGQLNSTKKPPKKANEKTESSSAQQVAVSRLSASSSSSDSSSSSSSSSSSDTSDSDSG

[4] = target: T2, Bromodomain-containing protein 2; assay: Inhibition of recombinant BRD2-BD2 (unknown origin) by TR-FRET assay
[5] = target: T3, Bromodomain-containing protein 3 (Homo sapiens, UniProt Q15059); assay: Inhibition of recombinant BRD3-BD1 (unknown origin) by TR-FRET assay
T3 sequence (Q15059 whole entry): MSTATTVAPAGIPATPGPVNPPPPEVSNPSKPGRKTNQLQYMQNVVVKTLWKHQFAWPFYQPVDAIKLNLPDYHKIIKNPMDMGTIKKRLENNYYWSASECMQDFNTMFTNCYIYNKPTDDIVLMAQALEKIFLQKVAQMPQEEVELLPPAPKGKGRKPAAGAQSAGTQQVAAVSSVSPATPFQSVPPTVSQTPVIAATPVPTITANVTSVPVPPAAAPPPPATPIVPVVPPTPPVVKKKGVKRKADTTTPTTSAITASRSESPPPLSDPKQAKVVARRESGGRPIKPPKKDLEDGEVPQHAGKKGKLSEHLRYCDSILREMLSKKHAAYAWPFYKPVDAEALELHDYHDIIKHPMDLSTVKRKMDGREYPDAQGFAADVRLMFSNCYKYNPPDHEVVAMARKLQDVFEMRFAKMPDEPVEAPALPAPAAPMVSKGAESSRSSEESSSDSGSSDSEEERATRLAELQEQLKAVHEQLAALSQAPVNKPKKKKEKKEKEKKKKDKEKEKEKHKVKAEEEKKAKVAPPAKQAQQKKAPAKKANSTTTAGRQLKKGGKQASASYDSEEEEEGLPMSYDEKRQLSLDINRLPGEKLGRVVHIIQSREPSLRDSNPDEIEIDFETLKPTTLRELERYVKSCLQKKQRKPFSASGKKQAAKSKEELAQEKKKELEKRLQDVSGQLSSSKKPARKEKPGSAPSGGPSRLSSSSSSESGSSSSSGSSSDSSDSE

[6] = target: T3, Bromodomain-containing protein 3; assay: Inhibition of recombinant BRD3-BD2 (unknown origin) by TR-FRET assay
[7] = target: T4, Bromodomain testis-specific protein (Homo sapiens, UniProt Q58F21); assay: Inhibition of recombinant BRDT-BD1 (unknown origin) by TR-FRET assay
[8] = target: T4, Bromodomain testis-specific protein; assay: Inhibition of recombinant BRDT-BD2 (unknown origin) by TR-FRET assay
Histone deacetylase 3 = Histone deacetylase 3 (Homo sapiens, UniProt O15379); assay: Inhibition of human HDAC3 using Boc-Lys(Ac)-AMC as substrate by fluorescence based assay
Histone deacetylase 3, sequence (O15379 whole entry): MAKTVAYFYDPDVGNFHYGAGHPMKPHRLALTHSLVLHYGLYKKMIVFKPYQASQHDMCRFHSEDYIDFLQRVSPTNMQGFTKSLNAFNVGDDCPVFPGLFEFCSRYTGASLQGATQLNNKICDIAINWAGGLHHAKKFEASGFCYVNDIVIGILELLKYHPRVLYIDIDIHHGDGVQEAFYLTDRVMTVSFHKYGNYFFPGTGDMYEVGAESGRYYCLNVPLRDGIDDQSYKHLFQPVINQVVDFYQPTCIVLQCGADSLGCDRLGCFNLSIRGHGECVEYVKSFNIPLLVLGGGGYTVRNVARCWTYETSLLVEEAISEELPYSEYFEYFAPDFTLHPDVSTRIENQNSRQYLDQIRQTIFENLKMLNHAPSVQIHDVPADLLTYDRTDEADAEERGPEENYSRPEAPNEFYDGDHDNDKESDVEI

[9] = target: T1, Bromodomain-containing protein 4; assay: Inhibition of BRD4-BD2 (unknown origin)
Histone deacetylase = assay: Inhibition of HDAC (unknown origin) by ELISA; type: protein assay, Homo sapiens
U-937 = assay: Cytotoxicity against human U-937 cells assessed as cell viability at 3 uM by MTT assay relative to control; type: functional; conditions: read-out: Activity
[10] = target: T1, Bromodomain-containing protein 4
Description: Inhibition of BRD4 (unknown origin) by ELISA

Histone deacetylase 1, sequence (Q13547 whole entry): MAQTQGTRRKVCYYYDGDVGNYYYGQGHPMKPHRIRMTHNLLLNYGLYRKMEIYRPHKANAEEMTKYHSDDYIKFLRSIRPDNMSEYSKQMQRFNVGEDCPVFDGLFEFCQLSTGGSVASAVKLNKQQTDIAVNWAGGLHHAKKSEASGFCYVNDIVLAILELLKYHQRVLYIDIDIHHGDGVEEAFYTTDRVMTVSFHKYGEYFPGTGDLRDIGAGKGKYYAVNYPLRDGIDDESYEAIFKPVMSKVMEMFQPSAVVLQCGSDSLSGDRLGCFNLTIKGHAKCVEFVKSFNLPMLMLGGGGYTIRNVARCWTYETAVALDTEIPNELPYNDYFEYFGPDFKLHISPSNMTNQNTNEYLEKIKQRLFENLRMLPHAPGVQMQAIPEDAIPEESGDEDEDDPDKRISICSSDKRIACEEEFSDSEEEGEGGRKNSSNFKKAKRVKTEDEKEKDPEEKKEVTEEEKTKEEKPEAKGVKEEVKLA

IC50 (Histone deacetylase 1): 50 nM | IC50 [1]: 250 nM
SMILES: CC(=O)N1c2ccc(-c3ccc(NC(=O)CCCCCCC(=O)NO)cc3)cc2[C@H](NC(=O)OC(C)C)C[C@@H]1C

IC50 [2]: < 1000 nM
SMILES: COC(c1c(F)cccc1Cl)c1c[nH]c2ncc(-c3c(C)noc3C)cc12 (stereo not drawn)

SMILES: Cc1sc2c(c1C)C(c1ccc(Cl)cc1)=N[C@@H](CC(=O)Nc1ccc(C(=O)NO)cc1)c1nnc(C)n1-2
IC50 [3]: 11 nM | IC50 [4]: 11 nM | IC50 [5]: 11 nM | IC50 [6]: 11 nM | IC50 [7]: 11 nM | IC50 [8]: 11 nM

IC50 (Histone deacetylase 3): 60 nM
SMILES: O=C(CCCCCCn1cc(Cc2ccccc2)c2ccccc21)NO

SMILES: Cc1sc2c(c1C)C(c1ccc(Cl)cc1)=N[C@@H](CC(=O)NCc1ccc(/C=C/C(=O)NO)cc1)c1nnc(C)n1-2
IC50 (Histone deacetylase 1): > 20000 nM | IC50 [1]: 1350 nM | IC50 [9]: 1580 nM

SMILES: Cc1sc2c(c1C)C(c1ccc(Cl)cc1)=N[C@@H](CC(=O)Nc1ccc(NC(=O)CCCCCCC(=O)NO)cc1)c1nnc(C)n1-2
IC50 (Histone deacetylase 1): 1110 nM | IC50 [1]: 4530 nM | IC50 [9]: 11000 nM

SMILES: Cc1sc2c(c1C)C(c1ccc(Cl)cc1)=N[C@@H](CC(=O)Nc1ccc(C(=O)Nc3ccccc3N)cc1)c1nnc(C)n1-2
IC50 (Histone deacetylase 1): 290 nM | IC50 [1]: 720 nM | IC50 [9]: 74 nM

SMILES: Cc1sc2c(c1C)C(c1ccc(Cl)cc1)=N[C@@H](CC(=O)NCCCC(=O)Nc1ccccc1N)c1nnc(C)n1-2
IC50 (Histone deacetylase): 31.24 nM | viability at 3 µM (U-937): 16.1% | IC50 [10]: 29.6 nM

IC50 [10]: 43.1 nM
SMILES: O=C(CCCCCCC(=O)Nc1ccccc1)NO [VORINOSTAT]
